Source: patent US9028845B2, “Chimeric immunomodulatory compounds and methods of using the same-IV” (Dynavax Technologies Corporation, priority 2001, dated 2015)

How the values were obtained:
[1] = tested on: human PBMCs; test: Human PBMC cytokine response assay (IFN-γ and IFN-α in cell-free medium by ELISA), with or without cPLGA; format: cell-based;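 for IFN-α (pg/ml) mean: 20 µg/mL compound for 24 hours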;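 for IFN-γ (pg/ml) mean: 20 µg/mL compound for 24 hours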
[2] = tested on: PBMCs; test: Human PBMC proliferation assay (3H-thymidine incorporation); format: cell-based; conditions: Experiment A; for mean cpm: 2 μg/ml
[3] = tested on: CD19+ B cells; test: Human B cell proliferation assay (3H-thymidine incorporation); conditions: 2 μg/ml; for cpm1 / cpm2 / cpm3 / mean cpm / mean of both: B cells
[4] = Table 24, mean of donors 28234-28237
[5] = donor 28066, 20 ug/ml, 24 h, + PLGA = premixed with 100 μg/ml cPLGA
[6] = donor 28067, 20 ug/ml, 24 h, + PLGA = premixed with 100 μg/ml cPLGA
[7] = donor 28068, 20 ug/ml, 24 h, + PLGA = premixed with 100 μg/ml cPLGA
[8] = mean of donors 110, 112, 119, 120, Table 14
[9] = mean of donors 28065-28068, 20 ug/ml, 24 h, + PLGA = premixed with 100 μg/ml cPLGA
[10] = mean of donors 28185-28188, Table 15

(5′-TCGTCGA-3′)2-glycerol-5′-TCGTCGA-3′ [Compound C-28]
IFN-α ([1]; Table 9, donor 28089): 0 pg/mL | IFN-γ ([1]; Table 9, donor 28089): 14 pg/mL | IFN-α ([1]; Table 9, donor 28090): 64 pg/mL | IFN-γ ([1]; Table 9, donor 28090): 15 pg/mL | IFN-α ([1]; Table 9, donor 28098): 42 pg/mL | IFN-γ ([1]; Table 9, donor 28098): 183 pg/mL | IFN-α ([1]; Table 9, donor 28099): 67 pg/mL | IFN-γ ([1]; Table 9, donor 28099): 45 pg/mL | IFN-α mean ([1]; Table 9, mean of donors): 43 pg/mL | IFN-γ mean ([1]; Table 9, mean of donors): 64 pg/mL | IFN-α ([1]; Table 24, donor 28234): 16 pg/mL | IFN-γ ([1]; Table 24, donor 28234): 10 pg/mL | IFN-α ([1]; Table 24, donor 28235): 16 pg/mL | IFN-γ ([1]; Table 24, donor 28235): 14 pg/mL | IFN-α ([1]; Table 24, donor 28236): 16 pg/mL | IFN-γ ([1]; Table 24, donor 28236): 88 pg/mL | IFN-α ([1]; Table 24, donor 28237): 16 pg/mL | IFN-γ ([1]; Table 24, donor 28237): 1229 pg/mL | IFN-α mean [1, 4]: 16 pg/mL | IFN-γ mean [1, 4]: 335 pg/mL | IFN-α ([1]; donor 110, Table 14): 38 pg/mL | IFN-γ ([1]; donor 110, Table 14): 5564 pg/mL | IFN-α ([1]; donor 112, Table 14): 4 pg/mL | IFN-γ ([1]; donor 112, Table 14): 52 pg/mL | IFN-α ([1]; donor 119, Table 14): 56 pg/mL | IFN-γ ([1]; donor 119, Table 14): 44 pg/mL | IFN-α ([1]; donor 120, Table 14): 26 pg/mL | IFN-γ ([1]; donor 120, Table 14): 60 pg/mL | IFN-γ (pg/ml) 28065 ([1]; donor 28065 (high background), 20 ug/ml, 24 h, + PLGA = premixed with 100 μg/ml cPLGA, 1000 = outside assay limits): 1082 pg/mL | IFN-α (pg/ml) 28065 ([1]; donor 28065, 20 ug/ml, 24 h, + PLGA = premixed with 100 μg/ml cPLGA): 3 pg/mL | IFN-α (pg/ml) 28066 [1, 5]: 0 pg/mL | IFN-γ (pg/ml) 28066 [1, 5]: 5 pg/mL | IFN-α (pg/ml) 28067 [1, 6]: 29 pg/mL | IFN-γ (pg/ml) 28067 [1, 6]: 42 pg/mL | IFN-α (pg/ml) 28068 [1, 7]: 52 pg/mL | IFN-γ (pg/ml) 28068 [1, 7]: 410 pg/mL | IFN-a ([1]; donor 28185, Table 15): 14 pg/mL | IFN-g ([1]; donor 28185, Table 15): 162 pg/mL | IFN-a ([1]; donor 28186, Table 15): 4 pg/mL | IFN-g ([1]; donor 28186, Table 15): 24 pg/mL | IFN-a ([1]; donor 28187, Table 15): 0 pg/mL | IFN-g ([1]; donor 28187, Table 15): 75 pg/mL | IFN-a ([1]; donor 28188, Table 15): 4 pg/mL | IFN-g ([1]; donor 28188, Table 15): 5 pg/mL | IFN-α (pg/ml) mean [1, 8]: 31 pg/mL | IFN-γ (pg/ml) mean [1, 8]: 1430 pg/mL | IFN-α (pg/ml) mean [1, 9]: 21 pg/mL | IFN-γ (pg/ml) mean [1, 9]: 385 pg/mL | IFN-a (pg/ml) mean [1, 10]: 6 pg/mL | IFN-g (pg/ml) mean [1, 10]: 66 pg/mL | IFN-a (pg/ml) ×2 ([1]; mean ×2, Table 15): 11 pg/mL | IFN-g (pg/ml) ×4 ([1]; mean ×4, Table 15): 266 pg/mL | IFN-α induction, in words ([1]; used alone): HEG (C-94)>TEG (C-103)>C3 (C-104)=no linker (C-28) | cpm1 ([2]; Donor 146, 2 μg/ml): 94977 cpm | cpm2 ([2]; Donor 146, 2 μg/ml): 121595 cpm | cpm3 ([2]; Donor 146, 2 μg/ml): 84977 cpm | mean cpm ([2]; Donor 146 mean): 100516 cpm | cpm1 ([2]; Donor 147, 2 μg/ml): 103916 cpm | cpm2 ([2]; Donor 147, 2 μg/ml): 91439 cpm | cpm3 ([2]; Donor 147, 2 μg/ml): 100905 cpm | mean cpm ([2]; Donor 147 mean): 98753 cpm | mean of both ([2]; mean of Donors 146 and 147, 2 μg/ml): 99635 cpm | B cell proliferation, in words ([3]; 48 h plus 8 h 3H-thymidine pulse): cause B cells to proliferate | cpm1 ([3]; Donor 146, Experiment A): 50999 cpm | cpm2 ([3]; Donor 146, Experiment A): 54630 cpm | cpm3 ([3]; Donor 146, Experiment A): 46418 cpm | mean cpm ([3]; Donor 146 mean, Experiment A): 50682 cpm | cpm1 ([3]; Donor 147, Experiment A): 65593 cpm | cpm2 ([3]; Donor 147, Experiment A): 51040 cpm | cpm3 ([3]; Donor 147, Experiment A): 50357 cpm | mean cpm ([3]; Donor 147 mean, Experiment A): 55663 cpm | cpm1 ([3]; donor 121, Experiment B): 35393 cpm | cpm2 ([3]; donor 121, Experiment B): 26954 cpm | cpm3 ([3]; donor 121, Experiment B): 26780 cpm | mean cpm ([3]; donor 121 mean, Experiment B): 29709 cpm | cpm1 ([3]; donor 194, Experiment B): 21588 cpm | cpm2 ([3]; donor 194, Experiment B): 13691 cpm | cpm3 ([3]; donor 194, Experiment B): 15691 cpm | mean cpm ([3]; donor 194 mean, Experiment B): 16990 cpm | mean of both ([3]; mean of Donors 146 and 147, Experiment A): 53173 cpm | mean of both ([3]; mean of donors 121 and 194, Experiment B): 23350 cpm
